These results are taken from patent US7902361B2, “Pyrimidin-4-yl-3, 4-thione compounds and their use in therapy” (Cyclacel Limited, priority 2003, dated 2011).

Each structure is given as a SMILES string.

The target of one series is T1, GSK3β (Homo sapiens, UniProt P49841).
T1 construct: purchased New England Biolabs
As to the kind of experiment: GSK3β in vitro kinase assay. The format is biochemical. The note with it: recombinant human GSK3β, 100 μM ATP. Summed up:
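Radiometric filter-binding assay with GSK3β (1.5 units), 200 μM CREB phosphopeptide, 100 μM ATP plus [γ-32P]ATP, in 20 mM Tris HCl pH7.5, 5 mM DTT, 15 mM MgCl2, 2% DMSO; 30 min at 30° C, stopped with phosphoric acid. 32P incorporation counted by scintillation; IC50 from 10-point titration.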

Another series deals with T2, GSK3α (Homo sapiens, UniProt P49840).
T2 construct: purchased Upstate
T2 sequence (P49840 whole entry): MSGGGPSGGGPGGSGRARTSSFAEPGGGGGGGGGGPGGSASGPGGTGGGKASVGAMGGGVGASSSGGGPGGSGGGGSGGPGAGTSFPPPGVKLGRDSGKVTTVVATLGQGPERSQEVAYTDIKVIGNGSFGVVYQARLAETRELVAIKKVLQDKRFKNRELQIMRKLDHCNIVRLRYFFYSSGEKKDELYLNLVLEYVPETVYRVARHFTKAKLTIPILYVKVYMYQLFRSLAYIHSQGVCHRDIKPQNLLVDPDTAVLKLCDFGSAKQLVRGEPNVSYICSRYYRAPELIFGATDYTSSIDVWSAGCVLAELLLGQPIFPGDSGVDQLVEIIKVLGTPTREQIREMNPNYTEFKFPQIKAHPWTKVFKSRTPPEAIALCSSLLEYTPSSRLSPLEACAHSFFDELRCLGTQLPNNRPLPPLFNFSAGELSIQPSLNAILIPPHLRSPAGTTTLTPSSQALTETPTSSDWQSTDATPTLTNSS
As to the kind of experiment: GSK3α in vitro kinase assay. The format is biochemical. Conditions: recombinant human GSK3α, 100 μM ATP. On the procedure: Both isoforms of GSK3 (α and β) are involved in the regulation of glycogen synthase activity—key enzyme in the glycogen metabolism. The inhibitory potency of example compounds was determined using in vitro kinase assays with recombinant human GSK3-α and -β; the IC50 values determined are presented in Table 9.
A 10-point titration was set up to determine the IC50 values of selected example compounds against GSK3β. Assays were performed using 96-well microtiter plates with a final volume of 25 μL per well. Each assay contained 1.5 units of GSK3β(New England Biolabs), 200 μM CREB phosphopeptide ([…]pSYR, Alta Biosciences), 20 mM Tris HCl pH7.5, 5 mM DTT, 15 mM MgCl2 supplemented with 100 μM ATP and 0.5 μCi of [γ-^32P] ATP plus or minus inhibitor in 2% DMSO. Assays were carried out for 30 minutes at 30° C. before stopping the reaction by the addition of an equal volume of 75 mM aqueous phosphoric acid. Samples were then spotted onto a p81 filterplate (Whatman) and a vacuum was applied. Wells were washed 3 times with 200 μL of dilute aqueous phosphoric acid before the addition of 50 μL Microscint 40 per well. Incorporation of radioactivity was determined on a Topcount microplate scintillation counter (Packard).
GSK3α (Upstate) was assayed exactly as described above except that 1 ng of enzyme was added per assay point.

The next series deals with CDK1/cyclin B (Homo sapiens, UniProt P06493). As to the kind of experiment: Kinase assay CDK1/cyclin B (radioactive phosphate incorporation). It counts as biochemical. Conditions: Ki calculated (Cheng-Prusoff) from experimentally determined IC50 and Km,ATP; read-out: Kinase Inhibition Ki CDK1 - cyclin B. Summed up: (§1)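 Radiometric assays measured transfer of radioactive phosphate from ATP onto polypeptide substrates, using 2-4 μg recombinant active enzyme in buffer typically containing 25 mM β-glycerophosphate, 20 mM MOPS, 5 mM EGTA, 1 mM DTT and 1 mM Na3VO3 at pH 7.4. Reactions were stopped on ice, filtered on P81 or GF/C plates and washed with orthophosphoric acid. Incorporated radioactivity was scintillation-counted.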
Sequence of CDK1/cyclin B (P06493 whole entry, species assumed): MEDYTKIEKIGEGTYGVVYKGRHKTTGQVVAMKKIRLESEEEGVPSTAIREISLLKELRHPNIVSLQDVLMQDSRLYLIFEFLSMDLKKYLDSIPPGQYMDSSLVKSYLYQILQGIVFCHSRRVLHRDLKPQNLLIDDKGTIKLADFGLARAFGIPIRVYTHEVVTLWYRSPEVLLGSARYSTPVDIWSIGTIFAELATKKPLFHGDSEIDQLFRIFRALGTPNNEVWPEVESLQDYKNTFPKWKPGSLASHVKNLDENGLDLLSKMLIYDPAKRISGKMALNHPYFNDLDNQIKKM
Sequence of CDK1/cyclin B (P14635 whole entry partner, species assumed): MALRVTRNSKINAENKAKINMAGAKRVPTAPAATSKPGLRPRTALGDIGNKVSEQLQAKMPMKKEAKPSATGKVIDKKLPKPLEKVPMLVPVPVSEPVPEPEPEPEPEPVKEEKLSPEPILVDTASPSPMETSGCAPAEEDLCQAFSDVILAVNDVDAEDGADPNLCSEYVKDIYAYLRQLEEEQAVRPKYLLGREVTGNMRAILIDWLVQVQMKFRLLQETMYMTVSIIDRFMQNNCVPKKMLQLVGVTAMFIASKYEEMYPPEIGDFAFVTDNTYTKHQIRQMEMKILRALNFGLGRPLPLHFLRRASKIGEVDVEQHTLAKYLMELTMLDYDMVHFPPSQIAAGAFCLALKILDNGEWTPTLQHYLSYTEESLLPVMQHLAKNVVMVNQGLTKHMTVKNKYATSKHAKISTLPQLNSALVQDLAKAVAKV

The target of another series is CDK2/cyclin E (Homo sapiens, UniProt P24941). As to the kind of experiment: Kinase assay CDK2/cyclin E. The format is biochemical. The note with it: Ki calculated (Cheng-Prusoff) from experimentally determined IC50 and Km,ATP; read-out: Kinase Inhibition Ki CDK2 - cyclin E. Summed up: as §1
A further series deals with CDK2/cyclin A (Homo sapiens, UniProt P24941). As to the kind of experiment: Kinase assay CDK2/cyclin A. It counts as biochemical. The note with it: Ki calculated (Cheng-Prusoff) from experimentally determined IC50 and Km,ATP; read-out: Kinase Inhibition Ki CDK2 - cyclin A. The method, boiled down:
as §1

The target of a further series is CDK4/cyclin D1 (Homo sapiens, UniProt P11802). Kind of series: Kinase assay CDK4/cyclin D1. The format is biochemical. The note with it: Ki calculated (Cheng-Prusoff) from experimentally determined IC50 and Km,ATP; read-out: Kinase Inhibition Ki CDK4 - cyclin D1. The method, boiled down: (§2)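 Radiometric filter assays used recombinant kinases or complexes (2-4 μg) with appropriate polypeptide substrates in pH 7.4 β-glycerophosphate/MOPS buffer. Reactions were started with 15 mM MgCl2 and 100 μM ATP containing [γ-32P]-ATP and run at 30° C. Phosphate incorporated into substrate was counted by scintillation after washing.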
Sequence of CDK4/cyclin D1 (P11802 whole entry, species assumed): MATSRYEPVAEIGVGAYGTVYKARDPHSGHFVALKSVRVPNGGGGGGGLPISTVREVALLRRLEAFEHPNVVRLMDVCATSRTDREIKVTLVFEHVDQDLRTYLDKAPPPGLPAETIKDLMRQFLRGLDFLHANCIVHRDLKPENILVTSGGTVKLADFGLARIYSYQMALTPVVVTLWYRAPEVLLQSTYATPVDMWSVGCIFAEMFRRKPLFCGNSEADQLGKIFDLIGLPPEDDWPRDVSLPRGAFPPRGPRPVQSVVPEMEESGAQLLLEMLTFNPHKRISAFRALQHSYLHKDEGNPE
Sequence of CDK4/cyclin D1 (P24385 whole entry partner, species assumed): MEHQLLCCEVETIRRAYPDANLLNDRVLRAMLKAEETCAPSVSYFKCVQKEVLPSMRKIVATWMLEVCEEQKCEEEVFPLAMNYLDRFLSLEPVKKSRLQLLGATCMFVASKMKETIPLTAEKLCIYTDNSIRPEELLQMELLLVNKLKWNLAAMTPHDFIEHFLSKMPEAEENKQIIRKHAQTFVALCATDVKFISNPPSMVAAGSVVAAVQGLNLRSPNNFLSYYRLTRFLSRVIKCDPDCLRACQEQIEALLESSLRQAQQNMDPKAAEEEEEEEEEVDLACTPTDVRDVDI

A further series has as its target CDK7/cyclin H (Homo sapiens, UniProt P50613). Kind of series: Kinase assay CDK7/cyclin H. The format is biochemical. Conditions: Ki calculated (Cheng-Prusoff) from experimentally determined IC50 and Km,ATP; read-out: Kinase Inhibition Ki CDK7 - cyclin H. Summed up: as §2
The target of the next series is CDK9/cyclin T1 (Homo sapiens, UniProt P50750). As to the kind of experiment: Kinase assay CDK9/cyclin T1. It counts as biochemical. The note with it: Ki calculated (Cheng-Prusoff) from experimentally determined IC50 and Km,ATP; read-out: Kinase Inhibition Ki CDK9 - cyclin T1. The method, boiled down: as §2
Sequence of CDK9/cyclin T1 (P50750 whole entry, species assumed): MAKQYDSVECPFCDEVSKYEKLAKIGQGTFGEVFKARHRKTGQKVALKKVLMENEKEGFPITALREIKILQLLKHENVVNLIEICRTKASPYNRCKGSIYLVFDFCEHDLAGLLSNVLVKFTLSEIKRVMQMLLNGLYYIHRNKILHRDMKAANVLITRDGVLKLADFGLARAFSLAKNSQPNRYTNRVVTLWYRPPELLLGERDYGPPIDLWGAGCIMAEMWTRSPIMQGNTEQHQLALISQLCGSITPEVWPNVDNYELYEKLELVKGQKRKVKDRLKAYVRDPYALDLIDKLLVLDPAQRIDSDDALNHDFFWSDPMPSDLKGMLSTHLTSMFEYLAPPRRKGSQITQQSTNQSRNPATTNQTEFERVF
Sequence of CDK9/cyclin T1 (O60563 whole entry partner, species assumed): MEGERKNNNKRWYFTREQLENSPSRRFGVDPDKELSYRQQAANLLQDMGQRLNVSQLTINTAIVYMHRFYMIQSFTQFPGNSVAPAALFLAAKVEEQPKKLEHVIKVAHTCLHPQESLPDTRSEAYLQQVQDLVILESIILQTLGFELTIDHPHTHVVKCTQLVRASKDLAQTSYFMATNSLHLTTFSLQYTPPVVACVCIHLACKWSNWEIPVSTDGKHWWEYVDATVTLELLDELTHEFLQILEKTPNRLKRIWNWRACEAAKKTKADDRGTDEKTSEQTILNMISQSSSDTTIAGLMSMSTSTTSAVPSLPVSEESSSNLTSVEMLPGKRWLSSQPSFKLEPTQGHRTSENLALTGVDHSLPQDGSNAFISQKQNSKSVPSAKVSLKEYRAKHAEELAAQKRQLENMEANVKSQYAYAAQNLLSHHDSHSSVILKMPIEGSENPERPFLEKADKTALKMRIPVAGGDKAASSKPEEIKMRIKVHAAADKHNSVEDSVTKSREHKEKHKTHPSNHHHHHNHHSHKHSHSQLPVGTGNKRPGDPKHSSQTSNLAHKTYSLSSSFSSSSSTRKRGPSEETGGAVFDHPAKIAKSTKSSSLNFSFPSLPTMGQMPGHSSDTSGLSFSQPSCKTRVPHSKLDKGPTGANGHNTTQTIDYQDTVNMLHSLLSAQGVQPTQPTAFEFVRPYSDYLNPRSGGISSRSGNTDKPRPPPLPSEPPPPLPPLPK
The target in the next series is T3, aurora A (Homo sapiens, UniProt O14965).
T3 sequence (O14965 1-403): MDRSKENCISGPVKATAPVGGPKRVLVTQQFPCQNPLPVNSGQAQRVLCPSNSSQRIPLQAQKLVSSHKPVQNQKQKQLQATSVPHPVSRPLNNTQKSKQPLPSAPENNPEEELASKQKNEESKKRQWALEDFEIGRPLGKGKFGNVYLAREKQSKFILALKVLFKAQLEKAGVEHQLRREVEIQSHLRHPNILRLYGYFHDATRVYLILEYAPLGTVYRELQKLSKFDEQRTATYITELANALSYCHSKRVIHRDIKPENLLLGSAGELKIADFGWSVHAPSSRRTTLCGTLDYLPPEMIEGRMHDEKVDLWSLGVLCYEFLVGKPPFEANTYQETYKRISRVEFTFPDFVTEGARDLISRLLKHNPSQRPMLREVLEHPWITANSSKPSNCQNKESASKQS
Kind of series: Kinase assay aurora A. It counts as biochemical. Conditions: Ki calculated (Cheng-Prusoff) from experimentally determined IC50 and Km,ATP; read-out: Kinase Inhibition Ki Aurora A. As for the experimental part:
The compounds from the examples above were investigated for their ability to inhibit the enzymatic activity of various protein kinases. This was achieved by measurement of incorporation of radioactive phosphate from ATP into appropriate polypeptide substrates. Recombinant protein kinases and kinase complexes were produced or obtained commercially. Assays were performed using 96-well plates and appropriate assay buffers (typically 25 mM β-glycerophosphate, 20 mM MOPS, 5 mM EGTA, 1 mM DTT, 1 mM […], pH 7.4), into which were added 2-4 μg of active enzyme with appropriate substrates. […] Reactions were stopped on ice, followed by filtration through p81 filterplates or GF/C filterplates (Whatman Polyfiltronics, Kent, UK). After washing 3 times with 75 mM aq orthophosphoric acid, plates were dried, scintillant added and incorporated radioactivity measured in a scintillation counter (TopCount, Packard Instruments, Pangbourne, Berks, UK). Compounds for kinase assay were made up as 10 mM stocks in DMSO and diluted into 10% DMSO in assay buffer.

The subject of the next series is HIV-1. Conditions: HIV-1 in human PBMCs, seven days following infection.

T1 sequence (P49841 whole entry): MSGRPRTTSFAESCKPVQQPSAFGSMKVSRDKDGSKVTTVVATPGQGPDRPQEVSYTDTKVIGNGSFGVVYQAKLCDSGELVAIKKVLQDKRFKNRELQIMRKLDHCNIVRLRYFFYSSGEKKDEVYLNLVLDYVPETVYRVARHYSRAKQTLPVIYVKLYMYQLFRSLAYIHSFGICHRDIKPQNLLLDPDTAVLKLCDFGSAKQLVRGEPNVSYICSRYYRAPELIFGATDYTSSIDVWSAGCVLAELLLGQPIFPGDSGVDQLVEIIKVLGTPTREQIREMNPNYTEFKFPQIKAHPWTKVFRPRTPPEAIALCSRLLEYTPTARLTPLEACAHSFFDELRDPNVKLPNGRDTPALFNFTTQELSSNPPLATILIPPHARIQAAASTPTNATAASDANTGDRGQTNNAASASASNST
Sequence of CDK7/cyclin H (P50613 whole entry, species assumed): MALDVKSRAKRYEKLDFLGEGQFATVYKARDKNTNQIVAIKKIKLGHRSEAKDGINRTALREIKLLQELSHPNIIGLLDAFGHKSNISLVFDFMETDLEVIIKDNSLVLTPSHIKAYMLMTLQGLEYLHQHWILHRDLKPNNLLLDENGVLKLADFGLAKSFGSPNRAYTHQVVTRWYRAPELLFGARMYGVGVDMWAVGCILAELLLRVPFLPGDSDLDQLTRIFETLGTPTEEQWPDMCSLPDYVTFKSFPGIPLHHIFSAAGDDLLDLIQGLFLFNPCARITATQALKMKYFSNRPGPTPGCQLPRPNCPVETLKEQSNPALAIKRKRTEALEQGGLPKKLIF
Sequence of CDK7/cyclin H (P51946 whole entry partner, species assumed): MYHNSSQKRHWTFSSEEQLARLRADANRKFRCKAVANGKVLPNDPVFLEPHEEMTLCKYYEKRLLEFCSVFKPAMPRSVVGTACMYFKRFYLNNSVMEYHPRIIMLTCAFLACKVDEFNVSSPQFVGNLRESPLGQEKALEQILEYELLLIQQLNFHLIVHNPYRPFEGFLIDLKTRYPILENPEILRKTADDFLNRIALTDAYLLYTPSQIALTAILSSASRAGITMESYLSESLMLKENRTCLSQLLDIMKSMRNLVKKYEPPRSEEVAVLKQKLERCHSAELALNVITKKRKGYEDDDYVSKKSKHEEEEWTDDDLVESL
Procedure for HIV-1: Representative compounds of the present invention were tested for antiviral activity against HIV-1 in human peripheral blood mononuclear cells (PBMCs) using the clinical paediatric HIV strains RoJo or WeJo. PBMCs were cultured under conditions which promote cell survival and HIV replication.
Fresh PBMCs, seronegative for HIV and HBV, were isolated from screened donors (Interstate Blood Bank, Inc. Memphis, Tenn.). Cells were pelleted/washed 2-3 times by low speed centrifugation and re-suspension in PBS to remove contaminating platelets. […] Banded PBMCs were gently aspirated from the resulting interface and subsequently washed with PBS by low speed centrifugation. […] The cells were allowed to incubate at 37° C. […] IL-2 is included in the culture medium to maintain the cell division initiated by the PHA mitogenic stimulation. PBMCs were maintained in this with bi-weekly medium changes until used in the assay protocol. Cells were kept in culture for a maximum of two weeks before being deemed too old for use in assays and discarded. Monocytes were depleted from the culture as the result of adherence to the tissue culture flask.
For the standard PBMC assay, PHA-P stimulated cells from at least two normal donors were pooled, diluted and plated in the interior wells of a 96-well round bottom microplate. Pooling of mononuclear cells from more than one donor was used to minimise the variability observed between individual donors, which results from quantitative and qualitative differences in HIV infection and overall response to the PHA and IL-2 of primary lymphocyte populations. Each plate contained virus/cell control wells (cells plus virus), experimental wells (drug plus cells plus virus) and compound control wells (drug plus media without cells, necessary for MTS monitoring of cytotoxicity). Since HIV-1 is not cytopathic to PBMCs, this allows the use of the same assay plate for both antiviral activity and cytotoxicity measurements. Test drug dilutions were prepared in microtiter tubes and each concentration was placed in appropriate wells using the standard format. A predetermined dilution of virus stock was placed in each test well (final MOI≅0.1). The PBMC cultures were maintained for seven days following infection at 37° C., 5% CO2 After this period, cell-free supernatant samples were collected for analysis of reverse transcriptase activity and/or HIV p24 content. Following removal of supernatant samples, compound cytotoxicity was measured by addition of MTS to the plates for determination of cell viability. Wells were also examined microscopically and any abnormalities were noted.
Tritiated thymidine triphosphate (^3H-TTP, 80 Ci/mmol, NEN) was received in 1:1 dH2O:Ethanol at 1 mCi/mL. Poly rA:oligo dT template:primer (Pharmacia) was prepared as a stock solution, followed by aliquoting and storage at −20° C. The RT reaction buffer was prepared fresh on a daily basis. The final reaction mixture was prepared by combining ^3H-TTP, dH2O, poly rA:oligo dT stock and reaction buffer. This reaction mixture was placed in a round bottom microtiter plate and supernatant containing virus was added and mixed. The plate was incubated at 37° C. for 60 minutes. Following incubation, the reaction volume was spotted onto DE81 filter-mats (Wallac), in a sodium phosphate buffer or 2×SSC (Life Technologies). Next they were washed in distilled water, in 70% ethanol, and then dried. Incorporated radioactivity (counts per minute, CPM) was quantified using standard liquid scintillation techniques.

As to `Cc1c(-c2ccnc(Nc3ccc(C#N)c(C(F)(F)F)c3)n2)sc(=O)n1C` [Compound 70, 4-[4-(3,4-Dimethyl-2-oxo-2,3-dihydro-thiazol-5-yl)-pyrimidin-2-ylamino]-2-trifluoromethyl-benzonitrile], the IC50 at GSK3β was determined as 6.8 nM; at GSK3α it was 3.6 nM.
As for `Cc1c(-c2ccnc(Nc3cccc(S(=O)(=O)NCc4ccccc4)c3)n2)sc(=O)n1C` [Compound 77, N-Benzyl-3-[4-(3,4-dimethyl-2-oxo-2,3-dihydro-thiazol-5-yl)-pyrimidin-2-ylamino]-benzenesulfonamide], the IC50 on GSK3β is 70.9 nM; on GSK3α, 61.5 nM.
As to `Cc1c(-c2ccnc(Nc3ccc(N4CCNCC4)cc3)n2)sc(=O)n1C` [Compound 38, 3,4-Dimethyl-5-[2-(4-piperazin-1-yl-phenylamino)-pyrimidin-4-yl]-3H-thiazol-2-one], the Ki at CDK1/cyclin B is 470 nM; at CDK2/cyclin E, 180 nM; on CDK2/cyclin A it was 300 nM; at CDK4/cyclin D1, 50 nM; at CDK7/cyclin H, 38 nM; on CDK9/cyclin T1, 10 nM. On aurora A, the Ki was 88 nM. In the series with HIV-1, the “anti-HIV activity based on TI (therapeutic index: TC50/IC50)” value is listed as “Active”.
As for `CCn1c(C)c(-c2ccnc(Nc3cccc([N+](=O)[O-])c3)n2)sc1=O` [Compound 23, 3-Ethyl-4-methyl-5-[2-(3-nitro-phenylamino)-pyrimidin-4-yl]-3H-thiazol-2-one], the Ki on CDK1/cyclin B was 290 nM; on CDK2/cyclin E, 16 nM; at CDK2/cyclin A, 62 nM; on CDK4/cyclin D1, 870 nM; on CDK7/cyclin H, 1.4 nM; at CDK9/cyclin T1 it was 0.3 nM. The “anti-HIV activity based on TI (therapeutic index: TC50/IC50)” value in the series with HIV-1 is reported as “Active”.
For `Cc1c(-c2ccnc(Nc3cccc(S(N)(=O)=O)c3)n2)sc(=O)n1C` [Compound 60, 3-[4-(3,4-Dimethyl-2-oxo-2,3-dihydro-thiazol-5-yl)-pyrimidin-2-ylamino]-benzenesulfonamide], the inhibition constant Ki at CDK1/cyclin B is 21 nM; at CDK2/cyclin E it was 3.4 nM; on CDK2/cyclin A, 21 nM; at CDK4/cyclin D1, 22 nM; on CDK7/cyclin H, 39 nM; on CDK9/cyclin T1 it was 0.3 nM. Moreover, the inhibition constant (Ki) on aurora A is 30 nM. In addition, the IC50 on GSK3β turned out to be 1.8 nM. In addition, the “anti-HIV activity based on TI (therapeutic index: TC50/IC50)” value in the series with HIV-1 is “Active”.
As to `CC(=O)NCc1ccc(Nc2nccc(-c3sc(=O)n(C)c3C)n2)cc1` [Compound 59, N-{4-[4-(3,4-Dimethyl-2-oxo-2,3-dihydro-thiazol-5-yl)-pyrimidin-2-ylamino]-benzyl}-acetamide], the Ki at CDK1/cyclin B is 85 nM; at CDK2/cyclin E, 1.6 nM; on CDK2/cyclin A, 160 nM; on CDK4/cyclin D1 it was 97 nM; at CDK7/cyclin H, 210 nM; on CDK9/cyclin T1, 7 nM. The Ki on aurora A is 110 nM. Moreover, the concentration for half-maximal inhibition (IC50) on GSK3β amounted to 18.3 nM. Further, the “anti-HIV activity based on TI (therapeutic index: TC50/IC50)” value in the series with HIV-1 is recorded as “Active”.
Regarding `Cc1c(-c2ccnc(Nc3cccc(C#N)c3)n2)sc(=O)n1C` [Compound 16, 3-[4-(3,4-Dimethyl-2-oxo-2,3-dihydro-thiazol-5-yl)-pyrimidin-2-ylamino]-benzonitrile], the Ki at CDK1/cyclin B is 400 nM; at CDK2/cyclin E, 0.5 nM; on CDK2/cyclin A, 42 nM; at CDK4/cyclin D1 it was 100 nM; on CDK7/cyclin H, 6.8 nM; at CDK9/cyclin T1 it was 1.9 nM. Further, in the series on HIV-1, the “anti-HIV activity based on TI (therapeutic index: TC50/IC50)” value is “Active”.
For `Cc1c(-c2ccnc(Nc3ccc(F)cc3)n2)sc(=O)n1C` [Compound 2, 5-[2-(4-Fluoro-phenylamino)-pyrimidin-4-yl]-3,4-dimethyl-3H-thiazol-2-one], the Ki was 0.8 nM at CDK9/cyclin T1 and 350 nM at aurora A. Also, the “anti-HIV activity based on TI (therapeutic index: TC50/IC50)” value with HIV-1 is “Active”.
On to `CCn1c(C)c(-c2ccnc(Nc3ccc(OC)nc3)n2)sc1=O` [Compound 33, 3-Ethyl-5-[2-(6-methoxy-pyridin-3-ylamino)-pyrimidin-4-yl]-4-methyl-3H-thiazol-2-one], for which the inhibitory constant (Ki) at CDK1/cyclin B is 30 nM; on CDK2/cyclin E, 50 nM; on CDK2/cyclin A, 760 nM; on CDK4/cyclin D1, 35 nM; at CDK7/cyclin H it was 23 nM; at CDK9/cyclin T1, 2.4 nM. Also, the “anti-HIV activity based on TI (therapeutic index: TC50/IC50)” value in the series with HIV-1 is recorded as “Active”.
